Inhibition data for 20 compounds are collected here from US9701689B2, “Substituted pyridines and pyridazines as CCR10 receptor inhibitors” (KYOWA HAKKO KIRIN CO., LTD., priority 2012, dated 2017).

In this experiment the target is T1, human CCR10 (Homo sapiens, UniProt P46092).
T1 construct: expressed in transfected cells; host or cells: KJMGER8 cells (Namalwa cell-derived line), beta-estradiol-induced; hCCR10G16 cells
T1 sequence (P46092 1-362): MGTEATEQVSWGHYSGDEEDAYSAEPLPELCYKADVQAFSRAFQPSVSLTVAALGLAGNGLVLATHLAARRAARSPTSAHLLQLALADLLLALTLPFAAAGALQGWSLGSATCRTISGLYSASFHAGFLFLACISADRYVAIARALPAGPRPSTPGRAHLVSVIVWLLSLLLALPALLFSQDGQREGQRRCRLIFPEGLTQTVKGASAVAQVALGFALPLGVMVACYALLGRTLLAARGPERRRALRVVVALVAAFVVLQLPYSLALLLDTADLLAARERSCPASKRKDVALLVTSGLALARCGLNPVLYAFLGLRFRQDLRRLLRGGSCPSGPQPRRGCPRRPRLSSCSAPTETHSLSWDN
Kind of experiment: CCR10 antagonistic effect: calcium assay of human CCR10 (CTACK-induced increase of intracellular calcium in hCCR10G16 cells). It is filed as cell-based. The settings on record: at a concentration of not more than 1000 nmol/L; human CCR10-expressing hCCR10G16 cells, 300 nmol/L CTACK added; read-out: inhibition of increase in the calcium ion concentration. Here is the method: [Experimental Example 1] CCR10 Antagonistic Effect
(1) Preparation of Human CCR10-Inducible Expression Plasmid
A CCR10-inducible expression plasmid was prepared according to a known method [Analytical Biochemistry, 2006, vol. 400, page 163]. A DNA encoding human CCR10 was obtained by PCR. Using human chromosome DNA (100 ng; manufactured by Clontech) as a template, synthetic DNA having the sequences depicted in SEQ ID NOs: 1 and 2 as a human CCR10 cDNA specific primer, and Pyrobest DNA Polymerase (manufactured by TAKARA SHUZO CO. LTD.) as an enzyme, a DNA encoding human CCR10 was obtained by PCR. As a buffer for PCR, the buffer attached to the enzyme to be used, which was diluted 10-fold with deionized water, was used. Using Thermal Cycler DNA Engine (manufactured by MJ Research), PCR was performed by 35 cycles of reactions composed of an incubation at 94° C. for 30 sec, at an anneal temperature of 58° C. for 30 sec, and at 72° C. for 1 min after treating at 90° C. for 2 min.
The amplified PCR fragment was cleaved with HindIII and NotI, then a human CCR10 DNA fragment was recovered by the agarose gel electrophoresis method. The fragment was incorporated between the corresponding restriction enzyme sites (HindIII-NotI) of an inducible expression vector to construct a human CCR10-inducible expression plasmid.
Using a primer specific to the sequence of plasmid (synthetic DNA having the sequences shown in SEQ ID NOs: 3 and 4), the sequence of human CCR10 DNA region was determined. For the determination of the base sequence, DNA Sequencer 377 (manufactured by Perkin Elmer. Co.) and a reaction kit (ABI Prism (registered trade mark) BigDye (registered trade mark) Terminator Cycle Sequencing Ready Reaction kit: manufactured by Applied Biosystems) were used. The sequence of human CCR10 DNA was identical with the sequence (NM 016602) registered in GenBank.
(2) Preparation of Human CCR10 Expressing Cell for Calcium Assay
Cells for detecting signals from human CCR10 in calcium assay were prepared. According to a known method [Analytical.Biochemistry (Analy Biochem), 2006, vol. 400, page 163], human CCR10-inducible expressing cells whose host cell is KJMGER8 cell (Namalwa cell-derived cell line) were prepared. Human CCR10-inducible expression plasmid produced above and Gα16 expression plasmid were co-transfected into the KJMGER8 cells by the electroporation method [Cytotechnology, 1990, vol. 3, page 133], whereby the signals from human CCR10 could be detected by calcium assay (hereinafter to be referred to as hCCR10G16 cell). A Ga16 expression plasmid was produced by incorporating human Ga16 DNA into expression vector pAMoh (WO 03/087366). Expression of human CCR10 was induced by cultivating hCCR10G16 cells in the presence of 10 nmol/L β-estradiol (manufactured by Sigma Ltd.) for 24 hr.
(3) Calcium Assay of Human CCR10
Cells expressing human CCR10 induced by the above-mentioned method were suspended in RPMI1640 medium (manufactured by Invitrogen), and adjusted to a cell density of 2×10^6 cells/mL. The cells were blended with an equivalent volume of a loading buffer prepared according to the attached protocol of Fluo-3 calcium assay kit (manufactured by Molecular Devices Corporation), and incubated at 37° C. for several dozen minutes. This mixture was dispensed to a 384 well clear-bottom plate (manufactured by Corning Incorporated) at 40 μL/well. To this plate was added a solution of the test compound in dimethyl sulfoxide (DMSO), which was diluted 37-fold with RPMI1640 medium, at 5 μL/well, and the mixture was incubated at 37° C. for 30 min. 300 nmol/L human recombinant CTACK (manufactured by R&D Systems, Inc.) diluted with RPMI1640 medium containing 1 w/v % bovine serum albumin (manufactured by Sigma Ltd.) was added at 5 μL/well and, variation of intracellular calcium ion concentration for about 5 min after the addition was measured by a screening apparatus (FDSS; manufactured by Hamamatsu Photonics K.K.). […]
For orientation: A change in cytosolic calcium serves as a functional read-out for many receptors and channels.

Each structure is given as a SMILES string. A value given as a limit tells only on which side of the number the result lay.

Turning to `Cc1cc(F)ccc1Nc1cc(S(=O)(=O)O)ncc1C(=O)N1CCC(c2ccc(F)cc2)CC1` [Compound 1, 4-(4-fluoro-2-methylphenylamino)-5-[4-(4-fluorophenyl)piperidine-1-carbonyl]pyridine-2-sulfonic acid], the inhibition at up to 1 µM was at least 50%.

Take `Cc1cc(F)ccc1Nc1cc(S(N)(=O)=O)ncc1C(=O)N1CCC(c2ccc(F)cc2)CC1` [Compound 2, 4-(4-fluoro-2-methylphenylamino)-5-[4-(4-fluorophenyl)piperidine-1-carbonyl]pyridine-2-sulfonamide]: the inhibition at up to 1 µM is at least 50%.

For the compound `NS(=O)(=O)c1cc(Nc2ccc3c(c2)COC3)c(C(=O)N2CCC(c3ccc(F)cc3)CC2)cn1` [Compound 3, 4-(1,3-dihydroisobenzofuran-5-ylamino)-5-[4-(4-fluorophenyl)piperidine-1-carbonyl]pyridine-2-sulfonamide], the inhibition at up to 1 µM was at least 50%.

As to `NS(=O)(=O)c1cc(Nc2ccc3ncccc3c2)c(C(=O)N2CCC(c3ccc(F)cc3)CC2)cn1` [Compound 4, 5-[4-(4-fluorophenyl)piperidine-1-carbonyl]-4-(quinolin-6-ylamino)pyridine-2-sulfonamide], the inhibition at up to 1 µM was at least 50%.

Regarding `Cc1cc(F)ccc1Nc1cc(S(=O)(=O)NC2CC2)ncc1C(=O)N1CCC(c2ccc(F)cc2)CC1` [Compound 5, N-cyclopropyl-4-(4-fluoro-2-methylphenylamino)-5-[4-(4-fluorophenyl)piperidine-1-carbonyl]pyridine-2-sulfonamide], the inhibition at up to 1 µM is at least 50%.

`CC(=O)NC1CCN(S(=O)(=O)c2cc(Nc3ccc(F)cc3C)c(C(=O)N3CCC(c4ccc(F)cc4)CC3)cn2)C1` (centres unmarked) [Compound 7, N-{1-{4-(4-fluoro-2-methylphenylamino)-5-[4-(4-fluorophenyl)piperidine-1-carbonyl]pyridin-2-ylsulfonyl}pyrrolidin-3-yl}acetamide]: the inhibition at up to 1 µM was at least 50%.

As to `Cc1cc(F)ccc1Nc1cc(S(=O)(=O)NC2CCN(C)C2=O)ncc1C(=O)N1CCC(c2ccc(F)cc2)CC1` (centres unmarked) [Compound 8, 4-(4-fluoro-2-methylphenylamino)-5-[4-(4-fluorophenyl)piperidine-1-carbonyl]-N-(1-methyl-2-oxopyrrolidin-3-yl)pyridine-2-sulfonamide], the inhibition at up to 1 µM was at least 50%.

On to `Cc1cc(F)ccc1Nc1cc(S(=O)(=O)N2CCNCC2)ncc1C(=O)N1CCC(c2ccc(F)cc2)CC1` [Compound 9, [4-(4-fluoro-2-methylphenylamino)-6-(piperazin-1-ylsulfonyl)pyridin-3-yl][4-(4-fluorophenyl)piperidin-1-yl]methanone], for which the inhibition at up to 1 µM was at least 50%.

For `Cc1cc(F)ccc1Nc1cc(S(=O)(=O)N2CCC(N)CC2)ncc1C(=O)N1CCC(c2ccc(F)cc2)CC1` [Compound 10, [6-(4-aminopiperidin-1-ylsulfonyl)-4-(4-fluoro-2-methylphenylamino)pyridin-3-yl][4-(4-fluorophenyl)piperidin-1-yl]methanone], the inhibition at up to 1 µM was at least 50%.

As to `Cc1cc(NS(=O)(=O)c2cc(Nc3ccc(F)cc3C)c(C(=O)N3CCC(c4ccc(F)cc4)CC3)cn2)on1` [Compound 12, 4-(4-fluoro-2-methylphenylamino)-5-[4-(4-fluorophenyl)piperidine-1-carbonyl]-N-(3-methylisoxazol-5-yl)pyridine-2-sulfonamide], the inhibition at up to 1 µM is at least 50%.

As to `CC(=O)NS(=O)(=O)c1cc(Nc2ccc(F)cc2C)c(C(=O)N2CCC(c3ccc(F)cc3)CC2)cn1` [Compound 13, N-{4-(4-fluoro-2-methylphenylamino)-5-[4-(4-fluorophenyl)piperidine-1-carbonyl]pyridine-2-sulfonyl}acetamide], the inhibition at up to 1 µM is at least 50%.

`Cc1cc(F)ccc1Nc1cc(S(=O)(=O)NC(=O)C2CC2(F)F)ncc1C(=O)N1CCC(c2ccc(F)cc2)CC1` (centres unmarked) [Compound 14, 2,2-difluoro-N-{4-(4-fluoro-2-methylphenylamino)-5-[4-(4-fluorophenyl)piperidine-1-carbonyl]pyridine-2-sulfonyl}cyclopropanecarboxamide]: the inhibition at up to 1 µM was at least 50%.

`NS(=O)(=O)c1cc(NCc2ccccc2)c(C(=O)N2CCC(c3ccc(F)cc3)CC2)cn1` [Compound 15, 4-(benzylamino)-5-[4-(4-fluorophenyl)piperidine-1-carbonyl]pyridine-2-sulfonamide]: the inhibition at up to 1 µM is at least 50%.

For the compound `CCCNC(=O)NS(=O)(=O)c1cc(NCc2ccccc2)c(C(=O)N2CCC(c3ccc(F)cc3)CC2)cn1` [Compound 16, 4-(benzylamino)-5-[4-(4-fluorophenyl)piperidine-1-carbonyl]-N-(propylcarbamoyl)pyridine-2-sulfonamide], the inhibition at up to 1 µM was at least 50%.

For `Cc1cc(Nc2cc(S(N)(=O)=O)ncc2C(=O)N2CCC(c3ccc(F)cc3)CC2)c(C)cc1Cl` [Compound 17, 4-(4-chloro-2,5-dimethylphenylamino)-5-[4-(4-fluorophenyl)piperidine-1-carbonyl]pyridine-2-sulfonamide], the inhibition at up to 1 µM is at least 50%.

For `Cc1cc(Nc2cc(S(=O)(=O)NC(=O)NC(C)C)ncc2C(=O)N2CCC(c3ccc(F)cc3)CC2)c(C)cc1Cl` [Compound 18, 4-(4-chloro-2,5-dimethylphenylamino)-5-[4-(4-fluorophenyl)piperidine-1-carbonyl]-N-(isopropylcarbamoyl)pyridine-2-sulfonamide], the inhibition at up to 1 µM was at least 50%.

Take `CCOC(=O)NS(=O)(=O)c1cc(Nc2cc(C)c(Cl)cc2C)c(C(=O)N2CCC(c3ccc(F)cc3)CC2)cn1` [Compound 19, ethyl 4-(4-chloro-2,5-dimethylphenylamino)-5-[4-(4-fluorophenyl)piperidine-1-carbonyl]pyridin-2-ylsulfonylcarbamate]: the inhibition at up to 1 µM is at least 50%.

In the case of `Cc1cc(Cl)ccc1Nc1cc(S(N)(=O)=O)ncc1C(=O)N1CCC(c2ccc(F)cc2)CC1` [Compound 20, 4-(4-chloro-2-methylphenylamino)-5-[4-(4-fluorophenyl)piperidine-1-carbonyl]pyridine-2-sulfonamide], the inhibition at up to 1 µM was at least 50%.

As for `CCNC(=O)N(C)S(=O)(=O)c1cc(Nc2ccc(F)cc2C)c(C(=O)N2CCC(c3ccc(F)cc3)CC2)cn1` [Compound 23, N-(ethylcarbamoyl)-4-(4-fluoro-2-methylphenylamino)-5-[4-(4-fluorophenyl)piperidine-1-carbonyl]-N-methylpyridine-2-sulfonamide], the inhibition at up to 1 µM is at least 50%.

`Cc1cc(F)ccc1Nc1c(C(=O)N2CCC(c3ccc(F)cc3)CC2)cnc(S(=O)(=O)O)c1Cl` [Compound 24, 3-chloro-4-(4-fluoro-2-methylphenylamino)-5-[4-(4-fluorophenyl)piperidine-1-carbonyl]pyridine-2-sulfonic acid]: the inhibition at up to 1 µM is at least 50%.
